Measured values: ChEMBL document CHEMBL3045534, “Synthesis and Acaricidal Activity of N-(1,3,4-Thiadiazol-2-yl)carboxamides” (2003)

Experiments:
Assay type in all cases: functional
Tetranychus urticae [1] = experiment: Acaricidal activity against Tetranychus urticae (two-spotted spider mite) assessed as mite mortality at 500 ppm relative to untreated control
Tetranychus urticae [2] = experiment: Acaricidal activity against Tetranychus urticae (two-spotted spider mite) assessed as mite mortality at 12.5 ppm relative to untreated control
Tetranychus urticae [3] = experiment: Acaricidal activity against Tetranychus urticae (two-spotted spider mite) assessed as mite mortality at 50 ppm relative to untreated control
Tetranychus urticae [4] = experiment: Acaricidal activity against Tetranychus urticae (two-spotted spider mite) assessed as mite mortality at 200 ppm relative to untreated control
Tetranychus urticae [5] = experiment: Acaricidal activity against Tetranychus urticae (two-spotted spider mite) assessed as mite mortality at 3.13 ppm relative to untreated control

| Compound | mortality at 500 ppm (Tetranychus urticae [1]) [%] | mortality at 12.5 ppm (Tetranychus urticae [2]) [%] | mortality at 50 ppm (Tetranychus urticae [3]) [%] | mortality at 200 ppm (Tetranychus urticae [4]) [%] | mortality at 3.13 ppm (Tetranychus urticae [5]) [%] |
| --- | --- | --- | --- | --- | --- |
| CC(C)(C)CC(=O)Nc1nnc(C(F)(F)F)s1 | 0 |  |  |  |  |
| Cc1nnc(NC(=O)C(Br)C(C)(C)C)s1 (stereo not given) | 0 |  |  |  |  |
| CC(C)CC(Br)C(=O)Nc1nnc(C(F)(F)F)s1 (stereo not given) | 0 |  |  |  |  |
| CC(Br)C(=O)Nc1nnc(C(F)(F)F)s1 (stereo not given) | 0 |  |  |  |  |
| O=C(CBr)Nc1nnc(C(F)(F)F)s1 | 0 |  |  |  |  |
| CC(C)(C)C(Cl)C(=O)Nc1nnc(C(F)(F)F)s1 (stereo not given) | 100 | 30 | 100 | 100 |  |
| CC(C)(C)C(Br)(Br)C(=O)Nc1nnc(C(F)(F)F)s1 | 100 | 30 | 100 | 100 |  |
| CC(C)(C)C(Br)(Br)C(=O)Nc1nnc(C(F)(F)C(F)(F)C(F)(F)F)s1 | 100 | 0 | 80 | 100 |  |
| CC(C)(C)C(Br)C(=O)Nc1nnc(C(F)(F)C(F)(F)C(F)(F)F)s1 (stereo not given) | 80 | 30 | 30 | 30 |  |
| CC(C)(C)C(Br)C(=O)Nc1nnc(C(F)(F)C(F)(F)F)s1 (stereo not given) | 100 | 30 | 80 | 80 |  |
| CC(C)(C)C(Br)(Br)C(=O)Nc1nnc(C(F)(F)C(F)(F)C(F)(F)C(F)(F)F)s1 | 100 | 30 | 100 | 100 |  |
| CCCCCC(Br)C(=O)Nc1nnc(C(F)(F)F)s1 (stereo not given) | 80 | 0 | 30 | 80 |  |
| CC(CC(Br)C(=O)Nc1nnc(C(F)(F)F)s1)C1CCCCC1 (stereo not given) | 30 |  |  | 0 |  |
| CCc1nnc(NC(=O)C(Br)C(C)(C)C)s1 (stereo not given) | 0 |  |  |  |  |
| CCCC(Br)C(=O)Nc1nnc(C(F)(F)F)s1 (stereo not given) | 30 |  |  | 0 |  |
| CC(C)(C)C(Br)C(=O)Nc1nnc(C(F)(F)F)s1 (stereo not given) | 100 | 30 | 100 | 100 |  |
| CC(C)(C)C(Br)C(=O)Nc1nnc(C(F)(F)C(F)(F)C(F)(F)C(F)(F)F)s1 (stereo not given) | 0 |  |  |  |  |
| CCC(Br)C(=O)Nc1nnc(C(F)(F)F)s1 (stereo not given) | 0 |  |  |  |  |
| O=C(Nc1nnc(C(F)(F)F)s1)C(Br)C1CCCC1 (stereo not given) | 30 |  |  | 0 |  |
| CCC(C)C(Br)C(=O)Nc1nnc(C(F)(F)F)s1 (stereo not given) | 100 | 30 | 80 | 100 |  |
| CC(C)(C)C(Br)(Br)C(=O)Nc1nnc(C(F)(F)C(F)(F)F)s1 | 100 | 80 | 100 | 100 | 30 |
| CC(C)C(Br)C(=O)Nc1nnc(C(F)(F)F)s1 (stereo not given) | 100 |  |  | 30 |  |
| CCCCC(Br)C(=O)Nc1nnc(C(F)(F)F)s1 (stereo not given) | 0 |  |  |  |  |
| CC(C)(C)C(Br)C(=O)Nc1nnc(C(F)(F)C(F)(F)C(F)(F)C(F)(F)C(F)(F)F)s1 (stereo not given) | 0 |  |  |  |  |
| CC(C)(C)C(Br)C(=O)Nc1nncs1 (stereo not given) | 0 |  |  |  |  |
